According to US20260176289A1, “SMALL MOLECULE INHIBITORS OF KRAS PROTEINS” (Merck Sharp & Dohme LLC, priority 2022, published 2026):

Key:
SW620 cells = assay: Cellular phospho-ERK assay, SW620 cells (homozygous KRAS-G12V); type: cell-based; conditions: Homo sapiens, SW-620, 2 hours compound incubation, read-out: SW620 pERK IC50
Summary of the method: (§1)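 Readout: p-ERK/total ERK ratio measured by Alpha SureFire Ultra multiplex in lysates after 2 h compound exposure (37 °C, 5% CO2). Dosing ran 10 points, 1:3 dilutions, highest final concentration 30 μM. IC50 values derived by four-parameter logistic regression.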

KRAS-G12D = KRAS-G12D (Homo sapiens, UniProt P01116, G12D); assay: SOS-catalyzed nucleotide exchange assay (Procedure A, TR-FRET), KRAS-G12D; type: biochemical; conditions: nucleotide exchange, read-out: KRAS G12D GNE IC50
Summary of the method: (§2)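 Signal ratio (520/495 nm, excitation 340 nm) reports Bodipy-GDP retention on biotinylated RAS after SOS-catalyzed exchange with 3 mM GTP. SOS was 40 nM, except 160 nM for G12V. Room-temperature exchange lasted 60 min (90 min for G12V), following a 60 min compound preincubation.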

AsPC-1 cells = assay: Cellular phospho-ERK assay, AsPC-1 cells (homozygous KRAS-G12D); type: cell-based; conditions: Homo sapiens, ASPC1, 2 h, 2 hours compound incubation, read-out: AsPC1 pERK IC50
Summary of the method: as §1

NRAS = NRAS (Homo sapiens, UniProt P01111); assay: SOS-catalyzed nucleotide exchange assay (Procedure A, TR-FRET), NRAS; type: biochemical; conditions: read-out: NRAS GNE IC50
From the text: Procedure for SOS-Catalyzed Nucleotide Exchange Assay for KRAS-WT, G12C/D/V, G13D, HRAS, and NRAS (Procedure A)
Recombinant KRAS-G12C protein used in this assay has an additional triple mutation (C51S/C80L/C118S). Whereas KRAS-WT, G12D/V, G13D, HRAS and NRAS are in context of their WT protein sequence background. Specifically, the SOS-catalyzed nucleotide exchange assay utilizes a preformed TR-FRET complex containing a specific biotinylated RAS protein (KRAS-WT, G12C/V/D, G13D, HRAS, NRAS; described above) with Bodipy-GDP, and Terbium-streptavidin. Compounds are preincubated with this complex for 60 minutes. Subsequently, recombinant human SOS protein and unlabeled GTP are added to initiate the exchange reaction. Small molecule inhibitors stabilize the Bodipy-GDP complex whereas the untreated protein rapidly exchanges Bodipy-GDP for unlabeled GTP resulting in reduced TR-FRET signal.
To assemble the preformed TR-FRET complexes, each biotinylated RAS protein is diluted to 2 μM in an EDTA Buffer (20 mM HEPES pH 7.5, 50 mM sodium chloride, 10 mM EDTA, and 0.01% Tween) and incubated at room temperature for one hour. This mixture is then further diluted to 90 nM in an Assay Buffer (20 mM HEPES pH 7.5, 150 mM sodium chloride, 10 mM magnesium chloride, and 0.005% Tween) containing 15 nM of Terbium-Streptavidin (Invitrogen, catalog #PV3577) and 900 nM of Bodipy-GDP (Invitrogen, catalog #G22360) and incubated at room temperature for six hours. It should be noted that this preformed TR-FRET complex for each of the RAS protein were made ahead of time, aliquoted and stored at −80° C. until the day of the experiment.
Each test compound (10 mM stock in DMSO) is diluted in DMSO to make a final-10-point, 3-fold dilution and is acoustically dispensed into a 384-well assay plate (Corning, catalog #3820) using an Echo 550 (Labcyte). Each well of the assay plate receives 3 μL of a specific 3×RAS preformed TR-FRET complex and 3 μL of Assay Buffer and is incubated at room temperature for 60 minutes (preincubation time). Each well then receives 3 μL of 3×recombinant human SOS protein and GTP (Sigma, G8877) in Assay Buffer and is incubated at room temperature for 30 minutes (G13D), 60 minutes (KRAS WT/G12C/D, H/NRAS) or 90 minutes for G12V. […]
The time-resolved fluorescence resonance energy transfer (TR-FRET) signal is measured on an Envision (PerkinElmer) plate reader: Excitation filter=340 nm; emission 1=495 nm; emission2=520 nm; dichroic mirror=D400/D505; delay time=[…]. The signal of each well is determined as the ratio of the emission at 520 nm to that at 495 nm. Percent effect of each well is determined after normalization to control wells containing DMSO (no effect) or a saturating concentration of inhibitor (max effect). […]

KRAS-G13D = KRAS-G13D (Homo sapiens, UniProt P01116, G13D); assay: SOS-catalyzed nucleotide exchange assay (Procedure A, TR-FRET), KRAS-G13D; type: biochemical; conditions: nucleotide exchange, Procedure A; read-out: KRAS G13D GNE IC50
[1] = target: KRAS-G12C (C51S/C80L/C118S) (Homo sapiens, UniProt P01116, C118S/C51S/C80L/G12C); assay: SOS-catalyzed nucleotide exchange assay (Procedure A, TR-FRET), KRAS-G12C; type: biochemical; conditions: nucleotide exchange, Procedure A; read-out: KRAS G12C GNE IC50
Summary of the method: (§3)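 Compounds (10-point, 3-fold) were preincubated 60 min at room temperature with a biotinylated RAS/Bodipy-GDP/Tb-streptavidin TR-FRET complex. Exchange was started with human SOS plus 3 mM GTP. RAS/SOS: G12C 3/40 nM, WT 1/40 nM, NRAS 1.25/40 nM (60 min); G12V 1.25/160 nM (90 min). The 520/495 ratio was fit four-parameter.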

MKN-1 cells = assay: Cellular phospho-ERK assay, MKN-1 cells (amplified wild-type KRAS); type: cell-based; conditions: Homo sapiens, 2 hours compound incubation, read-out: MKN1 pERK IC50
Summary of the method: as §1

KRAS-WT = KRAS-WT (Homo sapiens, UniProt P01116); assay: SOS-catalyzed nucleotide exchange assay (Procedure A, TR-FRET), KRAS-WT; type: biochemical; conditions: nucleotide exchange, read-out: KRAS WT GNE IC50
Summary of the method: as §3

HRAS = HRAS (Homo sapiens, UniProt P01112); assay: SOS-catalyzed nucleotide exchange assay (Procedure A, TR-FRET), HRAS; type: biochemical; conditions: read-out: HRAS GNE IC50
Summary of the method: as §2

PANC08.13 cells = assay: Cellular phospho-ERK assay, PANC08.13 cells (homozygous KRAS-G12D); type: cell-based; conditions: Homo sapiens, PANC-08-13, 2 hours compound incubation, read-out: PANC-08.13 pERK IC50
Summary of the method: as §1

KRAS-G12V = KRAS-G12V (Homo sapiens, UniProt P01116, G12V); assay: SOS-catalyzed nucleotide exchange assay (Procedure A, TR-FRET), KRAS-G12V; type: biochemical; conditions: nucleotide exchange, read-out: KRAS G12V GNE IC50
Summary of the method: as §3

KRAS-WT, sequence (P01116 with tags, fused parts or gaps isoform P01116-2): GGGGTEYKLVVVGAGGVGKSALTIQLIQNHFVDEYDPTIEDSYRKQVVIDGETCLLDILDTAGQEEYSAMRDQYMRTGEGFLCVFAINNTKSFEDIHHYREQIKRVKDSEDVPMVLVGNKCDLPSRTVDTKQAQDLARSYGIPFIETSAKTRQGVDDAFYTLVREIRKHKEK
KRAS-G13D, sequence (P01116 with tags, fused parts or gaps isoform P01116-2 G13D): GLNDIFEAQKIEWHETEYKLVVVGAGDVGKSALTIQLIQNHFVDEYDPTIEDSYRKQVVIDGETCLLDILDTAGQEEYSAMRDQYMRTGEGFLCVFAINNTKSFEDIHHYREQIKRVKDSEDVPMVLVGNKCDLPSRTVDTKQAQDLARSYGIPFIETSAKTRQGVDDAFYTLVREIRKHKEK
KRAS-G12D, sequence (P01116 with tags, fused parts or gaps isoform P01116-2 G12D): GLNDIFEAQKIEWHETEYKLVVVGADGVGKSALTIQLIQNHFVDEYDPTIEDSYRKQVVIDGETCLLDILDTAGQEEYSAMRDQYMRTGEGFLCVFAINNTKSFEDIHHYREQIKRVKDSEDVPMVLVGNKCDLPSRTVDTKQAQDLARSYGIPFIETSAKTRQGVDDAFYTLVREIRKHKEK
HRAS, sequence (P01112 with tags, fused parts or gaps): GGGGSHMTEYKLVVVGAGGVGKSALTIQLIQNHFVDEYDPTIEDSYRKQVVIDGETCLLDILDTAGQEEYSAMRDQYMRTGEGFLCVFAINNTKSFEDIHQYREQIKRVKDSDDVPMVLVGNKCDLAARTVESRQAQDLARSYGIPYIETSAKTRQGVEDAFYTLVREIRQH
NRAS, sequence (P01111 with tags, fused parts or gaps): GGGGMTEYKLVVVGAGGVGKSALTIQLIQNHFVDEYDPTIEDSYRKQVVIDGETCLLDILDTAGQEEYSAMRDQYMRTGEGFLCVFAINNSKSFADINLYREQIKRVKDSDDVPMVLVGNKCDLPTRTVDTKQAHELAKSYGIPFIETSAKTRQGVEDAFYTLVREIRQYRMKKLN
KRAS-G12V, sequence (P01116 with tags, fused parts or gaps isoform P01116-2 G12V): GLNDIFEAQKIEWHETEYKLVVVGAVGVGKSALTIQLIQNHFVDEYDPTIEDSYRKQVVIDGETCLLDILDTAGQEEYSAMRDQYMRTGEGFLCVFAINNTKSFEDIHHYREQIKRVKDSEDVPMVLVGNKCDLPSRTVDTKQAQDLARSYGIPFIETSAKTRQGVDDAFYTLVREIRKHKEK
KRAS-G12C (C51S/C80L/C118S), sequence (P01116 with tags, fused parts or gaps isoform P01116-2 G12C/C51S/C80L/C118S): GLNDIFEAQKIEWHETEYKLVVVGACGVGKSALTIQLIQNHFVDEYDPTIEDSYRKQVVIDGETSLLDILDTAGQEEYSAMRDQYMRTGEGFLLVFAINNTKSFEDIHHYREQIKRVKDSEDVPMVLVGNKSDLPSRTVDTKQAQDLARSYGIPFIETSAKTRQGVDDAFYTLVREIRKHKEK

## C#Cc1c(F)ccc2cc(O)cc(-c3nccc4c3sc3nc(OC[C@@]56CCCN5C[C@H](F)C6)nc(N5CCOC[C@@](C)(O)C5)c34)c12 [Ex-135, (S)-4-(8-(8-ethynyl-7-fluoro-3-hydroxy-naphthalen-1-yl)-2-(((2R,7aS)-2-fluoro-tetrahydro-1H-pyr-rolizin-7a(5H)-yl)-methoxy)pyrido [4′,3′:4,5]thieno[2,3-d]pyrimidin-4-yl)-6-methyl-1,4-oxaze-pan-6-ol]
SW620 cells
  IC50: 1.5 nM
KRAS-G12D
  IC50: 1.47 nM
AsPC-1 cells
  IC50: 4.61 nM
NRAS
  IC50: 9400 nM
KRAS-G13D
  IC50: 2.54 nM
[1]
  IC50: 9.25 nM
MKN-1 cells
  IC50: 3.86 nM
KRAS-WT
  IC50: 0.766 nM
HRAS
  IC50: 1570 nM
PANC08.13 cells
  IC50: 1.4 nM
KRAS-G12V
  IC50: 1.08 nM
